The values below are quoted from earlier work in patent publication US20250319042A1, “SKIN CARE PRODUCT WITH LAPACHOL AND METHOD FOR USE THEREOF” (priority 2024, published 2025).

Data set [1] deals with matrix metalloproteinase 3 (MMP-3). Particulars: in cell culture.
Another data set concerns MMP-8. Particulars: in cell culture.
The next data set concerns prostaglandin E2 (PGE2). The settings on record: in cell culture.
In a further data set the test system is MMP-9. The settings on record: in cell culture.
The test system of data set [2] is tumor necrosis factor alpha (TNF-a). Particulars: in cell culture.

With `CC1(C)CCC2=C(O1)c1ccccc1C(=O)C2=O` [beta-lapachone], the “inhibition of MMP-3” value in data set [1] is “inhibits”. The “inhibition of MMP-8” value in the data set with MMP-8 is reported as “inhibits”. Also, the “inhibition of PGE2” value in the data set with prostaglandin E2 (PGE2) is “inhibits”. In addition, the “inhibition of MMP-9” value in the data set with MMP-9 is on record as “inhibits”. Moreover, the “inhibition of TNF-a” value in data set [2] is listed as “inhibits”.
As for `CC(C)=CCC1=C(O)C(=O)c2ccccc2C1=O` [lapachol, 2-hydroxy-3-(3-methyl-2-butenyl)-1,4-naphtoquinone], the solubility result was “primarily oil-soluble”.
